Reference: patent EP4692061A1, “LOW-MOLECULAR-WEIGHT COMPOUND HAVING CEREBLON-BINDING ACTIVITY, AND USE THEREOF” (Aevis Bio, Inc., priority 2023, dated 2024)
Like-named read-outs stand apart in the source and are kept apart here.

Target: cereblon (CRBN) (Homo sapiens, UniProt Q96SW2)
Assay: In vitro CRBN binding assay (AlphaScreen, competitive inhibition of the PROTAC assay)
[1] = Table 1, AlphaScreen, PROTAC Optimization Kit for BET Bromodomain-Cereblon Binding, read-out: Alpha IC50

Row | SMILES | IC50 [1] [µM] | further results
1 | O=C1CCC(c2ccc(F)cc2)C(=O)N1 (stereo not drawn) [AEV40004] | 4.43 | 
2 | CC(=O)Nc1cccc(C2CCC(=O)NC2=O)c1 (stereo not drawn) [AEV40016] | 5.28 | 
3 | CC(C)C(=O)Nc1cccc(C2CCC(=O)NC2=O)c1 (stereo not drawn) [AEV40024] | 6.11 | 
4 | O=C1CCC(c2cccc(NS(=O)(=O)c3ccccc3)c2)C(=O)N1 (stereo not drawn) [AEV40025] | 1.86 | 
5 | Nc1cccc(C2CCC(=O)NC2=O)c1 (stereo not drawn) [AEV40029] | 2.96 | 
6 | CS(=O)(=O)Nc1cccc(C2CCC(=O)NC2=O)c1 (stereo not drawn) [AEV40030] | 7.06 | 
7 | C[C@H](O)C(=O)Nc1cccc(C2CCC(=O)NC2=O)c1 (stereo partly drawn) [AEV40031] | 3.86 | 
8 | O=C1CCC(c2ccc3c(c2)C(=O)NC3)C(=O)N1 (stereo not drawn) [AEV40032] | 3.1 | 
9 | CC(=O)Nc1ccc(F)c(C2CCC(=O)NC2=O)c1 (stereo not drawn) [AEV40034] | 6.26 | 
10 | CC(C)C(=O)Nc1ccc(F)c(C2CCC(=O)NC2=O)c1 (stereo not drawn) [AEV40035] | 3.11 | 
11 | COc1ccc(CN2CCOc3ccc(C4CCC(=O)NC4=O)cc3C2=O)cc1 (stereo not drawn) [AEV40036] | 1.13 | 
12 | O=C1CCC(c2cccc(NS(=O)(=O)c3ccc(Cl)cc3)c2)C(=O)N1 (stereo not drawn) [AEV40037] | 0.86 | 
13 | O=C1CCC(c2cc(NS(=O)(=O)c3ccc(Cl)cc3)ccc2F)C(=O)N1 (stereo not drawn) [AEV40038] | 0.69 | 
14 | Cc1ccc(C2CCC(=O)NC2=O)cc1 (stereo not drawn) [AEV40039] | 0.87 | 
15 | O=C1CCC(c2ccc3c(c2)CNC3=O)C(=O)N1 (stereo not drawn) [AEV40040] | 1.39 | 
16 | O=C1CCC(c2ccc3c(c2)CCNC3=O)C(=O)N1 (stereo not drawn) [AEV40041] |  | IC50: 0.76 µM
17 | COCCN1Cc2cc(C3CCC(=O)NC3=O)ccc2C1=O (stereo not drawn) [AEV40042] | 5.4 | 
18 | Cc1c(Cl)cccc1S(=O)(=O)Nc1cccc(C2CCC(=O)NC2=O)c1 (stereo not drawn) [AEV40043] | 0.91 | 
19 | O=C1CCC(c2cccc(NS(=O)(=O)c3ccc(Cl)cc3F)c2)C(=O)N1 (stereo not drawn) [AEV40044] | 0.23 | 
20 | O=C1CCC(c2cccc(NS(=O)(=O)c3ccccc3F)c2)C(=O)N1 (stereo not drawn) [AEV40045] | 0.3 | 
21 | CCc1ccc(S(=O)(=O)Nc2cccc(C3CCC(=O)NC3=O)c2)cc1 (stereo not drawn) [AEV40046] | 1 | 

Row | SMILES | IC50 [1] [µM] | further results
22 | CCCc1ccc(S(=O)(=O)Nc2cccc(C3CCC(=O)NC3=O)c2)cc1 (stereo not drawn) [AEV40047] | 1.5 | 
23 | O=C1CCC(c2cccc(NS(=O)(=O)c3cccc4ccccc34)c2)C(=O)N1 (stereo not drawn) [AEV40048] | 0.79 | 
24 | O=C1CCC(c2ccc3c(c2)CN(CCc2ccccc2)C3=O)C(=O)N1 (stereo not drawn) [AEV40049] | 2.06 | 
25 | CN1Cc2cc(C3CCC(=O)NC3=O)ccc2C1=O (stereo not drawn) [AEV40050] | 2.68 | 
26 | Cn1cnc(S(=O)(=O)Nc2cccc(C3CCC(=O)NC3=O)c2)c1 (stereo not drawn) [AEV40051] | 0.79 | 
27 | Cc1c(F)cccc1S(=O)(=O)Nc1cccc(C2CCC(=O)NC2=O)c1 (stereo not drawn) [AEV40052] | 0.95 | 
28 | O=C1CCC(c2cccc(NS(=O)(=O)c3ccc([N+](=O)[O-])c(C(F)(F)F)c3)c2)C(=O)N1 (stereo not drawn) [AEV40053] | 0.75 | 
29 | O=C1CCC(c2cccc(NS(=O)(=O)c3ccc(Cl)cc3Cl)c2)C(=O)N1 (stereo not drawn) [AEV40054] | 0.2 | 
30 | O=C1CCC(c2cccc(NS(=O)(=O)c3ccc([N+](=O)[O-])cc3)c2)C(=O)N1 (stereo not drawn) [AEV40055] | 0.2 | 
31 | O=C1CCC(c2cccc(NS(=O)(=O)c3cccc([N+](=O)[O-])c3)c2)C(=O)N1 (stereo not drawn) [AEV40056] | 0.91 | 
32 | O=C1CCC(c2cccc(NS(=O)(=O)c3ccccc3Cl)c2)C(=O)N1 (stereo not drawn) [AEV40057] | 0.59 | 
33 | O=C1CCC(c2cccc(NS(=O)(=O)c3cccc(Cl)c3Cl)c2)C(=O)N1 (stereo not drawn) [AEV40058] | 0.68 | 
34 | CS(=O)(=O)N1Cc2cc(C3CCC(=O)NC3=O)ccc2C1=O (stereo not drawn) [AEV40059] | 102 | 
35 | Cc1ccc([N+](=O)[O-])cc1S(=O)(=O)Nc1cccc(C2CCC(=O)NC2=O)c1 (stereo not drawn) [AEV40060] | 1.52 | 
36 | O=C1CCC(c2cccc(NS(=O)(=O)c3ccccc3[N+](=O)[O-])c2)C(=O)N1 (stereo not drawn) [AEV40061] | 0.59 | 
37 | O=C1CCC(c2ccc3c(c2)NC(=O)C3)C(=O)N1 (stereo not drawn) [AEV40062] | 2.39 | 
38 | O=C1CCC(c2ccc(NS(=O)(=O)c3ccc(Cl)cc3)cc2)C(=O)N1 (stereo not drawn) [AEV40063] | 1.43 | 
39 | Cc1cccc(S(=O)(=O)Nc2cccc(C3CCC(=O)NC3=O)c2)c1 (stereo not drawn) [AEV40069] |  | IC50 (read-out: Alpha IC50, Table 1, AlphaScreen, PROTAC Optimization Kit for BET Bromodomain-Cereblon Binding): 0.71 µM
40 | O=C1CCC(c2cccc(NS(=O)(=O)c3ccccc3C(F)(F)F)c2)C(=O)N1 (stereo not drawn) [AEV40070] | 1.05 | 
41 | O=C1CCC(c2cccc(NS(=O)(=O)c3ccc4oc(=O)ccc4c3)c2)C(=O)N1 (stereo not drawn) [AEV40071] | 0.22 | 
42 | O=C1CCC(c2cccc(NS(=O)(=O)c3cccs3)c2)C(=O)N1 (stereo not drawn) [AEV40072] | 0.31 | 

Row | SMILES | IC50 [1] [µM] | further results
43 | Nc1cccc(S(=O)(=O)Nc2cccc(C3CCC(=O)NC3=O)c2)c1 (stereo not drawn) [AEV40073] | 0.59 | 
44 | Nc1ccccc1S(=O)(=O)Nc1cccc(C2CCC(=O)NC2=O)c1 (stereo not drawn) [AEV40074] | 0.27 | 
45 | Nc1ccc(S(=O)(=O)Nc2cccc(C3CCC(=O)NC3=O)c2)cc1C(F)(F)F (stereo not drawn) [AEV40075] | 1.12 | 
46 | O=C1CCC(c2cccc(NC(=O)c3ccc(Cl)cc3Cl)c2)C(=O)N1 (stereo not drawn) [AEV40076] | 1.35 | 
47 | O=C1CCC(c2ccc3c(c2)CN(S(=O)(=O)c2ccc(Cl)cc2)C3=O)C(=O)N1 (stereo not drawn) [AEV40077] | 55.3 | 
48 | O=C1CCC(c2ccc3c(c2)C(=O)NCC3)C(=O)N1 (stereo not drawn) [AEV40078] | 3.11 | 
49 | O=C1CCC(c2ccc3c(c2)OCCNC3=O)C(=O)N1 (stereo not drawn) [AEV40079] | 2.44 | 
50 | O=C1CCC(c2ccc3c(c2)OCCN(c2ccccc2)C3=O)C(=O)N1 (stereo not drawn) [AEV40085] | 6.58 | 
51 | O=C1CCC(c2ccc3c(c2)OCCN(Cc2ccccc2)C3=O)C(=O)N1 (stereo not drawn) [AEV40086] | 4.14 | 
52 | O=C1CCC(c2cccc(NCc3ccccc3)c2)C(=O)N1 (stereo not drawn) [AEV40087] | 1.15 | 
53 | O=C1CCC(c2cccc(NC(=O)c3ccccc3)c2)C(=O)N1 (stereo not drawn) [AEV40088] | 2.19 | 
54 | O=C1CCC(c2cccc(O)c2)C(=O)N1 (stereo not drawn) [AEV40089] | 1.14 | 
55 | O=C1CCC(c2cccc(NCc3ccc(Cl)cc3)c2)C(=O)N1 (stereo not drawn) [AEV40090] | 2.14 | 
56 | Cc1ccc(CNc2cccc(C3CCC(=O)NC3=O)c2)s1 (stereo not drawn) [AEV40092] | 0.97 | 
57 | Cc1ccc(CNc2cccc(C3CCC(=O)NC3=O)c2)c(C)c1 (stereo not drawn) [AEV40094] | 0.81 | 
58 | Cc1ccc(CNc2cccc(C3CCC(=O)NC3=O)c2)cc1F (stereo not drawn) [AEV40095] | 1.58 | 
59 | COc1cc(Cl)ccc1CNc1cccc(C2CCC(=O)NC2=O)c1 (stereo not drawn) [AEV40096] | 0.99 | 
60 | O=C1CCC(c2cccc(NCc3ccc(F)cc3O)c2)C(=O)N1 (stereo not drawn) [AEV40097] | 0.99 | 
61 | CC(C)(C)c1ccc(CNc2cccc(C3CCC(=O)NC3=O)c2)cc1 (stereo not drawn) [AEV40098] | 2.85 | 
62 | O=C1CCC(c2cccc(NS(=O)(=O)c3ccc(C(F)(F)F)cc3)c2)C(=O)N1 (stereo not drawn) [AEV40100] | 1.39 | 
63 | O=C1CCC(c2cccc(NS(=O)(=O)c3ccc(F)cc3)c2)C(=O)N1 (stereo not drawn) [AEV40101] | 1.3 | 

Row | SMILES | IC50 [1] [µM] | further results
64 | Cc1ccc(CNc2cccc(C3CCC(=O)NC3=O)c2)cc1 (stereo not drawn) [AEV40102] | 1.24 | 
65 | O=C1CCC(c2cccc(NCc3ccc(Oc4ccccc4)cc3)c2)C(=O)N1 (stereo not drawn) [AEV40103] | 3.13 | 
66 | O=C1CCC(c2cccc(NCc3ccc(C(F)(F)F)cc3)c2)C(=O)N1 (stereo not drawn) [AEV40104] | 1.72 | 
67 | O=C1CCC(c2cccc(NCc3cccc(C(F)F)c3)c2)C(=O)N1 (stereo not drawn) [AEV40105] | 1.42 | 
68 | Cc1cccc(CNc2cccc(C3CCC(=O)NC3=O)c2)c1 (stereo not drawn) [AEV40106] | 1.14 | 
69 | O=C1CCC(c2cccc(NCc3cccc(F)c3)c2)C(=O)N1 (stereo not drawn) [AEV40107] | 1.49 | 
70 | COc1cc(C)ccc1CNc1cccc(C2CCC(=O)NC2=O)c1 (stereo not drawn) [AEV40108] | 0.84 | 
71 | O=C1CCC(c2cccc(NCc3ccc(Br)cc3Cl)c2)C(=O)N1 (stereo not drawn) [AEV40109] | 2.52 | 
72 | O=C1CCC(c2cccc(NCc3cc(F)c(F)c(F)c3)c2)C(=O)N1 (stereo not drawn) [AEV40110] | 1.96 | 
73 | Cc1cn(C)nc1CNc1cccc(C2CCC(=O)NC2=O)c1 (stereo not drawn) [AEV40113] | 0.66 | 
74 | O=C1CCC(c2cccc(NCc3cccc4ccccc34)c2)C(=O)N1 (stereo not drawn) [AEV40120] | 1.41 | 
75 | O=C1CCC(c2cccc(NCc3cccc(Oc4ccccc4)c3)c2)C(=O)N1 (stereo not drawn) [AEV40121] | 3.04 | 
76 | O=C1CCC(c2cccc(NCc3ccc(-c4ccccc4)cc3)c2)C(=O)N1 (stereo not drawn) [AEV40122] | 2.47 | 
77 | O=C1CCC(c2cccc(NC(=O)Nc3ccccc3)c2)C(=O)N1 (stereo not drawn) [AEV40129] | 0.37 | 
78 | CC(C)(C)OC(=O)NCc1cccc(C2CCC(=O)NC2=O)c1 (stereo not drawn) [AEV40130] | 4.33 | 
79 | O=C1CCC(c2cccc(NC(=O)Nc3ccc(Cl)cc3)c2)C(=O)N1 (stereo not drawn) [AEV40131] | 0.19 | 
80 | NCc1cccc(C2CCC(=O)NC2=O)c1 (stereo not drawn) [AEV40132] | > 10 | 
81 | O=C1CCC(c2cccc(NC(=O)Nc3ccc(C(F)(F)F)cc3)c2)C(=O)N1 (stereo not drawn) [AEV40133] | 1.26 | 
82 | O=C1CCC(c2cccc(NC(=O)c3cccc(Cl)c3Cl)c2)C(=O)N1 (stereo not drawn) [AEV40134] | 1.13 | 
83 | O=C1CCC(c2cccc(NS(=O)(=O)c3cccc(NC(=O)c4ccc(Cl)cc4)c3)c2)C(=O)N1 (stereo not drawn) [AEV40135] | 1.2 | 
84 | O=C1CCC(c2cccc(NS(=O)(=O)c3cccc(NC(=O)c4cccc(Cl)c4)c3)c2)C(=O)N1 (stereo not drawn) [AEV40136] | 0.79 | 
